Measured values taken from ChEMBL document CHEMBL1817639, “Refinement of arylthiosemicarbazone pharmacophore in inhibition of mushroom tyrosinase” (Eur J Med Chem, 2011).

system: not listed separately; assay: Dissociation constant, pKa of the compound; format: physicochemical

pKa | SMILES
0.5 | NC(=S)N/N=C/c1ccco1
5 | N/C(S)=N/N=C/c1ccccn1
0.5 | NC(=S)N/N=C/c1ccc[nH]1

target: T1, Tyrosinase (Agaricus bisporus) (UniProt O42713); assay: Ratio IC50 for Kojic acid to compound for diphenolase activity of mushroom tyrosinase
T1 sequence (whole entry): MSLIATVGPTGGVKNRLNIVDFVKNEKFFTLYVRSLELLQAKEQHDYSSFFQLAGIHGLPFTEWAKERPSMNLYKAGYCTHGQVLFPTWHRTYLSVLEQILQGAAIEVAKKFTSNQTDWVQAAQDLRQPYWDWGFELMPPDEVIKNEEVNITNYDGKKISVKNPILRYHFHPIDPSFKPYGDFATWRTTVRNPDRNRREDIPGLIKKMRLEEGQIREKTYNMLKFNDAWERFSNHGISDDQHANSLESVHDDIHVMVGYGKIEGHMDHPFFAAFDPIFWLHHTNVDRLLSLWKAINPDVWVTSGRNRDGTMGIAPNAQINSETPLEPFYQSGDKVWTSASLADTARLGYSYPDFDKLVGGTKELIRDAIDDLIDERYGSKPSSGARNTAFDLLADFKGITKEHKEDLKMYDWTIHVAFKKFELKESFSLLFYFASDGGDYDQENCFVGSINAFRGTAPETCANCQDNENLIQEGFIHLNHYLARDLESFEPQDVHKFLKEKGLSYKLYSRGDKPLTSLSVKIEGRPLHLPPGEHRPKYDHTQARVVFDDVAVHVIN

Ratio IC50 | SMILES
9 | NC(=S)N/N=C/c1cc(=O)c(O)co1

target: T2, Tyrosinase (Agaricus bisporus, UniProt O42713)
T2 sequence (O42713 whole entry): T1 sequence (whole entry)
Description: Inhibition of diphenolase activity of mushroom tyrosinase using L-DOPA as substrate preincubated for 5 mins by spectroscopic method

IC50 [µM] | SMILES
1700 | Cn1c(/C=N/N=C(/N)S)cc2ccccc21
> 2000 | NC(=S)N/N=C/c1ccc2[nH]ccc2c1
600 | NC(=S)N/N=C/c1c[nH]c2ccccc12
> 2000 | COc1coc(/C=N/NC(N)=S)cc1=O
6 | NC(=S)N/N=C/c1ccco1
> 2000 | Cc1[nH]c2ccccc2c1/C=N/NC(N)=S
400 | NC(=S)N/N=C/CCc1ccccc1
12 | NC(=S)N/N=C/c1cccc2ccccc12
9 | NC(=S)N/N=C/c1cccc(F)c1

The next lines start with the compound.

SMILES | IC50 [µM]
NC(=S)N/N=C/Cc1ccccc1 | 7
NC(=S)N/N=C/c1ccccc1F | 32
NC(=S)N/N=C/c1cc2ccccc2[nH]1 | 402
Cn1cc(/C=N/NC(N)=S)c2ccccc21 | > 2000
NC(=S)N/N=C/c1cc(=O)c(O)co1 | 11
NC(=S)N/N=C/c1ccc(F)cc1 | 11
Cn1ccc2cc(/C=N/NC(N)=S)ccc21 | > 2000
NC(=S)N/N=C/c1ccc2ccccc2n1 | 70
N/C(S)=N/N=C/c1ccccn1 | 45
NC(=S)N/N=C/c1ccc2ccccc2c1 | 1100
NC(=S)N/N=C/c1ccc[nH]1 | 8
